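Growth conditions: 96-well plates. Treatment: test compound, 48 hours, 5 concentrations. Analysis: linear interpolation between bracketing concentrations; unreached endpoints set to highest concentration. At the GI50, growth is halved. TGI marks complete inhibition of growth.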
Legend:
Experiment in all cases: NCI-60 cell line screen, 48 h
[1] = test system: 786-0 renal
[2] = test system: A498 renal
[3] = test system: A549 NSCLC
[4] = test system: ACHN renal
[5] = test system: BT-549 breast
[6] = test system: CAKI-1 renal
[7] = test system: CCRF-CEM leukemia
[8] = test system: COLO 205 colon
[9] = test system: DU-145 prostate
[10] = test system: EKVX NSCLC
[11] = test system: HCC-2998 colon
[12] = test system: HCT-116 colon
[13] = test system: HCT-15 colon
[14] = test system: HOP-62 NSCLC
[15] = test system: HOP-92 NSCLC
[16] = test system: HS 578T breast
[17] = test system: HT29 colon
[18] = test system: IGROV1 ovarian
[19] = test system: K-562 leukemia
[20] = test system: KM12 colon
[21] = test system: LOX IMVI melanoma
[22] = test system: M14 melanoma
[23] = test system: MALME-3M melanoma
[24] = test system: MCF7 breast
[25] = test system: MDA-MB-231 breast
[26] = test system: MDA-MB-435
[27] = test system: MOLT-4 leukemia
[28] = test system: NCI-H226 lung
[29] = test system: NCI-H23 lung
[30] = test system: NCI-H460 lung
[31] = test system: NCI-H522 lung
[32] = test system: NCI/ADR-RES ovarian
[33] = test system: OVCAR-3 ovarian
[34] = test system: OVCAR-4 ovarian
[35] = test system: OVCAR-5 ovarian
[36] = test system: OVCAR-8 ovarian
[37] = test system: PC-3 prostate
[38] = test system: RPMI-8226 leukemia
[39] = test system: RXF 393 renal
[40] = test system: SF-268 CNS
[41] = test system: SF-295 CNS
[42] = test system: SF-539 CNS
[43] = test system: SK-MEL-28 melanoma
[44] = test system: SK-MEL-5 melanoma
[45] = test system: SN12C renal
[46] = test system: SNB-19 CNS
[47] = test system: SNB-75 CNS
[48] = test system: SW-620 colon
[49] = test system: T-47D breast
[50] = test system: TK-10 renal
[51] = test system: U251 CNS
[52] = test system: UACC-257 melanoma
[53] = test system: UACC-62 melanoma
[54] = test system: UO-31 renal

## C=C(C)[C@@H]1CCC2=C[C@@H](OC2=O)[C@@H](C(=C)C)C(=O)/C=C(/C)C(=O)C1
[1]
  GI50: 35.5 µM
  TGI: > 100 µM
[2]
  GI50: 26.7 µM
  TGI: 69.6 µM
[3]
  GI50: 36.9 µM
  TGI: > 100 µM
[4]
  GI50: 37.3 µM
  TGI: > 100 µM
[5]
  GI50: 44.8 µM
  TGI: > 100 µM
[6]
  GI50: 25.4 µM
  TGI: 60.9 µM
[7]
  GI50: 4.78 µM
  TGI: 28.8 µM
[8]
  GI50: 26.3 µM
  TGI: 56.8 µM
[9]
  GI50: 34.9 µM
  TGI: > 100 µM
[10]
  GI50: 52.4 µM
  TGI: > 100 µM
[11]
  GI50: 26.2 µM
  TGI: 62.2 µM
[12]
  GI50: 16.1 µM
  TGI: 42 µM
[13]
  GI50: 24.1 µM
  TGI: 69.7 µM
[14]
  GI50: 36.2 µM
  TGI: > 100 µM
[15]
  GI50: 17.4 µM
  TGI: 58.2 µM
[16]
  GI50: 35.1 µM
  TGI: > 100 µM
[17]
  GI50: 41.8 µM
  TGI: > 100 µM
[18]
  GI50: 40.9 µM
  TGI: > 100 µM
[19]
  GI50: 18.7 µM
  TGI: > 100 µM
[20]
  GI50: 24.8 µM
  TGI: 63.7 µM
[21]
  GI50: > 100 µM
  TGI: > 100 µM
[22]
  GI50: 20.8 µM
  TGI: 50.5 µM
[23]
  GI50: 23.8 µM
  TGI: 71.5 µM
[24]
  GI50: 35.3 µM
  TGI: > 100 µM
[25]
  GI50: 45.2 µM
  TGI: > 100 µM
[26]
  GI50: 38.8 µM
  TGI: > 100 µM
[27]
  GI50: 14 µM
  TGI: 47 µM
[28]
  GI50: 36.9 µM
  TGI: > 100 µM
[29]
  GI50: 22.6 µM
  TGI: 60.4 µM
[30]
  GI50: 29.1 µM
  TGI: 92.2 µM
[31]
  GI50: 34.4 µM
  TGI: > 100 µM
[32]
  GI50: 37 µM
  TGI: > 100 µM
[33]
  GI50: 22.6 µM
  TGI: 57.8 µM
[34]
  GI50: 71.6 µM
  TGI: > 100 µM
[35]
  GI50: 70.6 µM
  TGI: > 100 µM
[36]
  GI50: 49 µM
  TGI: > 100 µM
[37]
  GI50: 8.79 µM
  TGI: 39.3 µM
[38]
  GI50: 1.76 µM
  TGI: 17.1 µM
[39]
  GI50: 22.4 µM
  TGI: 53.3 µM
[40]
  GI50: 30 µM
  TGI: > 100 µM
[41]
  GI50: 35.9 µM
  TGI: > 100 µM
[42]
  GI50: 36.5 µM
  TGI: 95.4 µM
[43]
  GI50: 34.8 µM
  TGI: 87.5 µM
[44]
  GI50: 18.6 µM
  TGI: 39.4 µM
[45]
  GI50: 28.6 µM
  TGI: 77.3 µM
[46]
  GI50: 33.8 µM
  TGI: > 100 µM
[47]
  GI50: > 100 µM
  TGI: > 100 µM
[48]
  GI50: 24.7 µM
  TGI: 68.4 µM
[49]
  GI50: 51.1 µM
  TGI: > 100 µM
[50]
  GI50: 31.3 µM
  TGI: 90.9 µM
[51]
  GI50: 33.4 µM
  TGI: > 100 µM
[52]
  GI50: 58.3 µM
  TGI: > 100 µM
[53]
  GI50: 24.8 µM
  TGI: 61.1 µM
[54]
  GI50: 42.2 µM
  TGI: > 100 µM

Source: PubChem BioAssay (NCI)
